# Laboratory results from US20240391881A1, “PHARMACEUTICAL USE AND PREPARATION METHOD FOR SUBSTITUTED HETEROARYL PHTHALAZINE DERIVATIVE” (ORIGIANT PHARMACEUTICAL CO., LTD., priority 2021, published 2024).
# Target: T1, NLRP3 inflammasomes (Homo sapiens, UniProt Q96P20)
# T1 construct: endogenous in cells; host or cells: THP-1 human monocytic cells, PMA-differentiated, LPS-primed, nigericin-stimulated
# Experiment: THP-1 pyroptosis test (cell pyroptosis test)
# Type: cell-based
# Details: THP-1 cells differentiated with PMA, LPS stimulation, 10 μM nigericin, drug 0.001-10 μM, MTT absorbance 562 nm
# Procedure: In vitro activity screening was performed on small molecule compounds targeting inhibition on NLRP3 inflammasomes using THP-1 human monocytic cells (THP-1). THP-1 can be induced to differentiate into macrophages by phorbol ester (PMA), and the macrophages M1 can be induced to polarize by lipopolysaccharide (LPS) to release cytokines such as TNF-α, and IL-6, so as to establish a typical inflammatory model.
# THP-1 cells in a logarithmic growth phase were collected to prepare a 1×10^6 cells/mL cell suspension, PMA was added to achieve a final concentration of 300 ng/mL in the cell suspension, then 1×10^5 cells were inoculated to each well of a 96-well plate, and the cells were cultured in a 37° C., 5% CO2 cell incubator for 24 hours and induced to differentiate into macrophages.
# The next day, LPS was added to stimulate and induce the cells to produce an inflammatory model. […] In the 200 μL system of the 96-well plate, the final concentration of each drug was 0.001-10 μM, and the final concentration of the nigericin was 10 μM.
# Cell apoptosis protection rate=[(X−C0)/(C−C0)]×100%
# wherein, C, C0 and X represent average absorbance values of the normal cell group, the blank control group, and the drug treatment group, respectively. Finally, cell survival curves were fitted by Graphpad Prism 5.0 software and EC50 values of the compounds to be tested in inhibiting pyroptosis caused by NLRP3 inflammasomes were calculated.
# T1 sequence (Q96P20 whole entry): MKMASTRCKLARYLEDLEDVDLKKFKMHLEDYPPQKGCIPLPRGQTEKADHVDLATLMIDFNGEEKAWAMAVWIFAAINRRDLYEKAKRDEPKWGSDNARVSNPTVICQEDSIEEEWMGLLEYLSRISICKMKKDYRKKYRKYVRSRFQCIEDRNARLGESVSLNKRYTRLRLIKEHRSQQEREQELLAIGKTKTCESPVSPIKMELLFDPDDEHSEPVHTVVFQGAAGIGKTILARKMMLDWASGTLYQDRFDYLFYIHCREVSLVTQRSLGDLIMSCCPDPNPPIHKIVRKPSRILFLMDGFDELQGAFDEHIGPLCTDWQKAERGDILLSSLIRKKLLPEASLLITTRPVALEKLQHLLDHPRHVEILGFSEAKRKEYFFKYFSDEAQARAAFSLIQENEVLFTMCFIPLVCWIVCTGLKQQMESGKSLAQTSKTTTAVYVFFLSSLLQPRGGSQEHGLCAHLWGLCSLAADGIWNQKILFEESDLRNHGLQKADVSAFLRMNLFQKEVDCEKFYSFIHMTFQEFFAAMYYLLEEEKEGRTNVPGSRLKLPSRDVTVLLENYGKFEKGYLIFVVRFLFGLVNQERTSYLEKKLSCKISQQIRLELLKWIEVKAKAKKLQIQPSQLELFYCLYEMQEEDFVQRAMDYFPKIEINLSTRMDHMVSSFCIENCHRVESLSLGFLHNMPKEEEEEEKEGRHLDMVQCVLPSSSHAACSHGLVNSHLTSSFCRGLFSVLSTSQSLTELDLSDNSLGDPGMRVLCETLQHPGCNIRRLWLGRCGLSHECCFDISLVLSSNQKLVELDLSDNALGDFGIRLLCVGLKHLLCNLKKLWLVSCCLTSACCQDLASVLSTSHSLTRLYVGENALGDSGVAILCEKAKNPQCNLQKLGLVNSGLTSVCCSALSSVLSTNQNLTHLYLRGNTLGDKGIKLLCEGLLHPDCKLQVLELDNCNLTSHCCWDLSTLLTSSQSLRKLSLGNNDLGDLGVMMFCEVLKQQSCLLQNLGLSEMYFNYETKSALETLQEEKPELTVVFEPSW
row,SMILES,EC50 [µM]
1,"Oc1cc(C(F)(F)F)ccc1-c1nnc(N[C@H]2CCc3ncccc32)c2ccccc12 [Compound 30, (S)-2-(4-((6,7-dihydro-5H-cyclopenta[b]pyridin-5-yl)amino)phthalazin-1-yl)-5-(trifluoromethyl)phenol]",0.02 to 0.1
2,Cn1ncc2c(NCCN3CCOCC3)nnc(-c3ccc(C(F)(F)F)cc3O)c21 [Compound 73],0.5 to 1
3,"C[C@@H](Nc1nnc(-c2ccc(C(F)(F)F)cc2O)c2ccccc12)c1ccccn1 [Compound 12, (R)-2-(4-((1-(pyridin-2-yl)ethyl)amino)phthalazin-1-yl)-5-(trifluoromethyl)phenol]",> 1
4,"CN1CCC[C@@H](Nc2nnc(-c3ccc(F)cc3O)c3ccccc23)C1 [Compound 44, (R)-5-fluoro-2-(4-((1-methylpiperidin-3-yl)amino)phthalazin-1-yl)phenol]",0.02 to 0.1
5,"Oc1cc(C(F)(F)F)ccc1-c1nnc(NCCN2CCOCC2)c2ccccc12 [Compound 21, 2-(4-((2-morpholinylethyl)amino)phthalazin-1-yl)-5-(trifluoromethyl)phenol]",> 1
6,"CCN1CC[C@@H](Nc2nnc(-c3ccc(C(F)(F)F)cc3O)c3ccccc23)C1 [Compound 25, (R)-2-(4-((1-ethylpyrrolidin-3-yl)amino)phthalazin-1-yl)-5-(trifluoromethyl)phenol]",< 0.02
7,"COc1ccc2c(-c3ccc(C(F)(F)F)cc3O)nnc(N[C@@H]3CCCN(C)C3)c2c1 [Compound 6, (R)-2-(6-methoxy-4-((1-methylpiperidin-3-yl)amino)phthalazin-1-yl)-5-(trifluoromethyl)phenol]",< 0.02
8,"Cc1cnc2c(-c3ccc(C(F)(F)F)cc3O)nnc(N[C@@H]3CCCN(C)C3)c2c1 [Compound 49, 2-(3-methyl-5-{[(3R)-1-methylpiperidin-3-yl]amino}pyridino[2,3-d]pyridazin-8-yl)-5-(trifluoromethyl)phenol]",< 0.02
9,"Cc1ccc(-c2nnc(N[C@@H]3CCCN(C)C3)c3ncc(C)cc23)c(O)c1 [Compound 60, 5-methyl-2-(3-methyl-8-{[(3R)-1-methylpiperidin-3-yl]amino}pyridino[2,3-d]pyridazin-5-yl)phenol]",< 0.02
10,CN1CCC(Nc2nnc(-c3ccc(C(F)(F)F)cc3O)c3c2cnn3C)CC1 [Compound 68],0.5 to 1
11,"Cc1cnc2c(N[C@@H]3CCCN(C)C3)nnc(-c3ccc(C(F)(F)F)cc3O)c2c1 [Compound 48, 2-(3-methyl-8-{[(3R)-1-methylpiperidin-3-yl]amino}pyridino[2,3-d]pyridazin-5-yl)-5-(trifluoromethyl)phenol]",< 0.02
12,CN1C[C@H](Nc2nnc(-c3ccc(C(F)(F)F)cc3O)c3c2cnn3C)CCC1=O [Compound 66],0.1 to 0.5
13,"CN1CCC[C@@H](Nc2nnc(-c3ccc(OC(F)(F)F)cc3O)c3ccccc23)C1 [Compound 41, (R)-2-(4-((1-methylpiperidin-3-yl)amino)phthalazin-1-yl)-5-(trifluoromethoxy)phenol]",< 0.02
14,"Cc1ccc2c(N[C@@H]3CCCN(C)C3)nnc(-c3ccc(C(F)(F)F)cc3O)c2c1 [Compound 3, (R)-2-(7-methyl-4-((1-methylpiperidin-3-yl)amino)phthalazin-1-yl)-5-(trifluoromethyl)phenol]",< 0.02
15,"C[C@H](Nc1nnc(-c2ccc(C(F)(F)F)cc2O)c2ccccc12)c1ccccn1 [Compound 13, (S)-2-(4-((1-(pyridin-2-yl)ethyl)amino)phthalazin-1-yl)-5-(trifluoromethyl)phenol]",> 1
16,"CN1CCC[C@@H](Nc2nnc(-c3ccc(C(F)(F)F)cc3O)c3cc(F)ccc23)C1 [Compound 16, 2-(7-fluoro-4-{[(3R)-1-methylpiperidin-3-yl]amino}phthalazin-1-yl)-5-(trifluoromethyl)phenol]",< 0.02
17,CN(C)[C@H]1CC[C@H](Nc2nnc(-c3ccc(C(F)(F)F)cc3O)c3ccccc23)CC1 [Compound 18],0.5 to 1

row,SMILES,EC50 [µM]
1,CN1CC(Nc2nnc(-c3ccc(C(F)(F)F)cc3O)c3cnn(C)c23)CCC1=O (stereo not shown) [Compound 67],0.1 to 0.5
2,"Cc1cnc2c(N[C@@H]3CCCN(C)C3)nnc(-c3ccc(OC(F)(F)F)cc3O)c2c1 [Compound 61, 2-(3-methyl-8-{[(3R)-1-methylpiperidin-3-yl]amino}pyridino[2,3-d]pyridazin-5-yl)-5-(trifluoromethoxy)phenol]",< 0.02
3,CN1CC[C@@H](Nc2nnc(-c3ccc(C(F)(F)F)cc3O)c3c2cnn3C)C1 [Compound 72],0.02 to 0.1
4,"C[C@H](Nc1nnc(-c2ccc(C(F)(F)F)cc2O)c2ccccc12)c1ccccc1 [Compound 8, (S)-2-(4-((1-phenylethyl)amino)phthalazin-1-yl)-5-(trifluoromethyl)phenol]",> 1
5,CN1CCC(CNc2nnc(-c3ccc(C(F)(F)F)cc3O)c3c2cnn3C)CC1 [Compound 75],0.1 to 0.5
6,"Oc1cc(C(F)(F)F)ccc1-c1nnc(N[C@@H]2CCc3ncccc32)c2ccccc12 [Compound 29, (R)-2-(4-((6,7-dihydro-5H-cyclopenta[b]pyridin-5-yl)amino)phthalazin-1-yl)-5-(trifluoromethyl)phenol]",0.02 to 0.1
7,"CC(C)(O)CNc1nnc(-c2ccc(C(F)(F)F)cc2O)c2ccccc12 [Compound 20, 2-(4-((2-hydroxy-2-methylpropyl)amino)phthalazin-1-yl)-5-(trifluoromethyl)phenol]",> 1
8,CN1CCC[C@@H](Nc2nnc(-c3ccc(C(F)(F)F)cc3C(F)F)c3c2cnn3C)C1 [Compound 88],0.02 to 0.1
9,"CN1CCC[C@@H](Nc2nnc(-c3cc(F)ccc3O)c3ccccc23)C1 [Compound 46, (R)-4-fluoro-2-(4-((1-methylpiperidin-3-yl)amino)phthalazin-1-yl)phenol]",0.02 to 0.1
10,"C[C@@H](Nc1nnc(-c2ccc(C(F)(F)F)cc2O)c2ccccc12)c1ccc(F)cc1 [Compound 9, (R)-2-(4-((1-(4-fluorophenyl)ethyl)amino)phthalazin-1-yl)-5-(trifluoromethyl)phenol]",> 1
11,Cn1cnc2c(NCCN3CCOCC3)nnc(-c3ccc(C(F)(F)F)cc3O)c21 [Compound 76],> 1
12,"CN1CCC[C@@H](Nc2nnc(-c3ccc(C(F)(F)F)cc3O)c3ncn(C)c23)C1 [Compound 36, (R)-2-(1-methyl-7-((1-methylpiperidin-3-yl)amino)-1H-imidazo[4,5-d]pyridazin-4-yl)-5-(trifluoromethyl)phenol]",0.5 to 1
13,CC(C)N1CCC[C@@H](Nc2nnc(-c3ccc(C(F)(F)F)cc3O)c3c2cnn3C)C1 [Compound 87],< 0.02
14,"Cc1ccc(-c2nnc(N[C@@H]3CCCN(C)C3)c3ccccc23)c(O)c1 [Compound 40, (R)-5-methyl-2-(4-((1-methylpiperidin-3-yl)amino)phthalazin-1-yl)phenol]",< 0.02
15,CCN1CC[C@@H](CNc2nnc(-c3ccc(C(F)(F)F)cc3O)c3c2cnn3C)C1 [Compound 71],> 1
16,"CCN1CCC[C@@H](Nc2nnc(-c3ccc(C(F)(F)F)cc3O)c3ccccc23)C1 [Compound 23, (R)-2-(4-((1-ethylpiperidin-3-yl)amino)phthalazin-1-yl)-5-(trifluoromethyl)phenol]",< 0.02
17,CN1CCC[C@@H](Nc2nnc(-c3sccc3O)c3c2ncn3C)C1 [Compound 83],> 1
